Experimental data: publication PMC10447287, “Optimisation of Pharmaceutical Cocrystal Dissolution Performance through a Synergistic Precipitation Inhibition” (Pharmaceutical Research, 2023)

Key:
Assay type in all cases: physicochemical
[1] = Dissolution tests of powders in DDW with predissolved polymer or combination (USP type II paddle); conditions: for incongruent indicator k(t) (molar FFA/NIC in solution): neat cocrystal
Description: In vitro dissolution tests were performed with a USP type II paddle apparatus (DT 126 light, Erweka GmbH, Germany) at 37 ± 0.5°C with a paddle speed of 50 rpm in 400 mL of DDW in the absence and presence of a predissolved polymer (i.e., 0.2 mg/mL of PVP-VA, 1 mg/mL of PEG, 0.2 mg/mL of SLP) or a combination of two polymers (i.e., 0.2 mg/mL PVP-VA + 1 mg/mL PEG, […]).
71.7 mg of FFA-NIC cocrystal powders with the equivalent of 50 mg FFA I powders were used in each of the dissolution tests. Samples of 1 ± 0.1 mL were withdrawn from the dissolution vessel at the predefined time points of 5, 10, 15, 30, 60, 120, 180 and 240 min. The supernatant of each of the samples was separated from the excess solids by centrifugation at 13,000 RPM for 1 min in an MSE Micro Centaur. HPLC was used to determine the concentrations of FFA and NIC in solution. Solid residues obtained from the experiments were dried at room temperature and analysed by PXRD. All experiments were repeated in triplicate.
For comparison, the above dissolution tests were also repeated using 50 mg of pure FFA I powders and 82.0 mg of FFA-TP cocrystal powders.
(§1) DPP was used to evaluate the dissolution profile of the test powders in comparison to a reference system, which is defined as,4 DPP=AUCC(t)-AUCCR(t)/AUCCR(t)×100% where AUCC(t) is the area under the curve (AUC) of a dissolution profile C(t) , indicating the amount of drug dissolved is maintained over the period of the dissolution time from 0 to t, and AUCCR(t) is the AUC of a reference dissolution profile CR(t) .
The solids were scanned by D2 phaser diffractometer (Bruker U.K. Limited, Coventry, UK) with […] radiation operating at voltage of 30 kV and current of 10 mA. The scanning angle ranged from 2°-40° of 2θ. The scanning time per step was 0.4 s. The scan step size was 0.02° of 2θ.

[2] = Dissolution tests of powder mixtures of FFA-NIC cocrystal with polymers in PBS pH 6.8 (sink); conditions: for FFA DPP: reference neat cocrystal in PBS pH 6.8; for incongruent indicator k(t) (molar FFA/NIC in solution): PBS pH 6.8, sink conditions
Description: Similarly, in vitro dissolution tests of the powder mixtures of 71.7 mg of the FFA-NIC cocrystals with an individual polymer or a combination in PBS pH 4.5 or PBS pH 6.8 were conducted in triplicate. The amount of a polymer used in the powder mixture was 80 mg of PVP-VA, 400 mg of PEG, or 80 mg of SLP, corresponding to their predissolved concentrations used in Section "Dissolution Tests of FFA, the Neat FFA-TP Cocrystal or FFA-NIC Cocrystal Powders in DDW in the Absence and Presence of a Predissolved Polymer or a Combination".
as §1

[3] = Particle size distribution of sieved powders; conditions: sieved particles < 250 μm
Description: All samples (i.e., FFA, FFA-NIC cocrystal and FFA-TP cocrystal) used in the dissolution tests were slightly ground by a mortar and pestle and sieved by a 60-mesh sieve (below 250 μm) to reduce the influence of particle size on the dissolution rates. The particle size distributions of the test samples were measured using a SYNC Analyzer (MICROTRAC Retsch GmbH, Hann, Germany). The particle size distributions (D10, D50, D90 and mean particle size) of the solid particles were compared. The data were analysed by the Microtrac FLEX software (12.0.0.1).

[4] = DDW, combination of predissolved PVP-VA and PEG
[5] = DDW, no polymer, powder dissolution

solid residues after dissolution tests (PXRD) ([1]; DDW in the absence or presence of predissolved polymers): FFA III | FFA concentration at 240 min [1, 4]: 11.44 µg/mL | maximum FFA concentration [1, 4]: 14.28 µg/mL | time to generate supersaturated state of FFA concentration [1, 4]: ≤ 5 min | solid residues after dissolution tests (PXRD) ([1]; DDW, combinations of predissolved PVP-VA and SLP at various concentrations except SLP (0.2 mg/mL) + PVP-VA (0.8 mg/mL)): FFA III alone | incongruent indicator k(t) (molar FFA/NIC in solution) ([1]; DDW, at 5 min): 0.06 | incongruent indicator k(t) (molar FFA/NIC in solution) ([1]; DDW, at 60 min): 0.08 | FFA concentration reached within 60 min [1, 5]: 10.23 µg/mL | FFA concentration, constant level after 60 min [1, 5]: 10.78 µg/mL | time for FFA concentration to reach aqueous equilibrium solubility ([1]; DDW, predissolved 0.2 mg/mL PVP-VA): ≤ 15 min | maximum FFA concentration ([1]; DDW, predissolved 0.2 mg/mL PVP-VA, at 60 min): 12.93 µg/mL | FFA DPP (dissolution performance parameter) ([1]; DDW, predissolved PEG (1 mg/mL), 0-4 h, reference same powder in DDW): -7% | FFA DPP (dissolution performance parameter) ([1]; DDW, predissolved PVP-VA (0.2 mg/mL), 0-4 h, reference same powder in DDW): 19% | NIC release from cocrystal powders ([1]; DDW, predissolved PVP-VA or its combination with PEG or SLP): released completely | FFA concentration in solution after 4 h ([1]; DDW, predissolved SLP (0.2 mg/mL)): 26.18 µg/mL | FFA DPP (dissolution performance parameter) ([1]; DDW, predissolved SLP (0.2 mg/mL) + PVP-VA (0.1 mg/mL), reference DDW): 112% | FFA DPP (dissolution performance parameter) ([1]; DDW, predissolved SLP (0.2 mg/mL) + PVP-VA (0.2 mg/mL), 0-4 h, reference same powder in DDW): 160% | FFA DPP (dissolution performance parameter) ([1]; DDW, predissolved SLP (0.2 mg/mL) + PVP-VA (0.3 mg/mL), reference DDW): 296% | FFA DPP (dissolution performance parameter) ([1]; DDW, predissolved SLP (0.2 mg/mL) + PVP-VA (0.4 mg/mL), reference DDW): 345% | FFA DPP (dissolution performance parameter) ([1]; DDW, predissolved SLP (0.2 mg/mL) + PVP-VA (0.8 mg/mL), reference DDW): 310% | FFA DPP (dissolution performance parameter) ([1]; DDW, predissolved SLP (0.2 mg/mL), 0-4 h, reference same powder in DDW): 67% | NIC release from cocrystal powders ([1]; DDW, single polymer of PEG or SLP): not complete | solid residues after dissolution tests (PXRD) ([1]; SLP predissolved DDW): both FFA III and FFA-NIC cocrystal | solid residues after dissolution ([2]; PBS pH 6.8, 37°C, after 4 h): no solid residue | FFA DPP ([2]; PBS pH 6.8, powder mixture with PVP-VA (0.2 mg/mL)): 11% | FFA DPP ([2]; PBS pH 6.8, powder mixture with PVP-VA (0.4 mg/mL)): 7% | incongruent constant k(t) ([2]; PBS pH 6.8, powder mixture with PVP-VA, at 60 min): > 0.94 | FFA DPP ([2]; PBS pH 6.8, powder mixture with SLP (0.1 mg/mL) + PVP-VA (0.4 mg/mL)): 8% | FFA DPP ([2]; PBS pH 6.8, powder mixture with SLP (0.2 mg/mL) + PVP-VA (0.2 mg/mL)): 6% | FFA DPP ([2]; PBS pH 6.8, powder mixture with SLP (0.2 mg/mL) + PVP-VA (0.4 mg/mL)): 9% | FFA DPP ([2]; PBS pH 6.8, powder mixture with SLP (0.2 mg/mL)): -0.1% | incongruent indicator k(t) (molar FFA/NIC in solution) ([2]; at 5 min): 0.75 | incongruent indicator k(t) (molar FFA/NIC in solution) ([2]; at the end of dissolution): 0.94 | D10 [3]: 6.08 μm | D50 [3]: 13.77 μm | D90 [3]: 33.97 μm | Mean particle size [3]: 17.63 μm
Compound: NC(=O)c1cccnc1.O=C(O)c1ccccc1Nc1cccc(C(F)(F)F)c1 [FFA-NIC cocrystal]
solid residues after dissolution tests (PXRD) ([1]; DDW, predissolved SLP (0.2 mg/mL) and PVP-VA (0.8 mg/mL)): mixtures of FFA III and FFA-NIC cocrystal
